Laboratory results published in patent US7741486B1, “Water-soluble titanium alkoxide material” (Sandia Corporation, priority 2008, dated 2010).

Format: physicochemical
Source text: The bidentate nature of the OC6H6N (referred to herein as OPy) group, the steric bulk of the OC6H2(CH2N(CH3)2)3-2,4,6 (referred to herein as TAP) ligand, and the amino functionality of the OC6H2(CH2N(CH3)2)3-2,4,6 ligand combine to effectively limit conventional hydrolysis of the alkoxide while maintaining solubility in aqueous media. Therefore, unlike many other similar compounds, the compound of the present invention is both water soluble and stable in an aqueous solution.
The inhibition of hydrolysis at ligand sites even when the molecule is dispersed in water is attributed to steric constraints imposed by the bidentate pyridine carbinoxide (OPy) and monodentate tri-amino-phenoxide (TAP) groups. It is believed that the amino groups present on the TAP ligand further facilitate water solubilization through H-bonding with the water. The inert character of the molecule to conventional hydrolysis chemistry enables an evaluation of photoexcitation as a means to influence the evolution of intermolecular bond formation.

- stability in aqueous solution (resistance to conventional hydrolysis): water-stable
- water solubility: water-soluble
SMILES: CN(C)Cc1cc(CN(C)C)c([O][Ti]([O]Cc2ccccn2)([O]Cc2ccccn2)[O]c2c(CN(C)C)cc(CN(C)C)cc2CN(C)C)c(CN(C)C)c1 [(OC6H6N)2Ti(OC6H2(CH2N(CH3)2)3-2,4,6)2]
